Measurements published in ChEMBL document CHEMBL1201862, “PubChem BioAssay data set” (2004).
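Compound exposure: 48 hours, 5 concentrations, 96-well plates. Abbreviation: GI50, concentration required for 50% inhibition of growth.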 The source made the active and inactive calls. Cut-off read from the data, not from the text of the source: active = GI50 up to about 1.1 µM and inactive = higher.

Key:
Assay in all cases: NCI anticancer screen, dose series, 48 h
ACHN = tested on: ACHN
M14 = tested on: M14
SW-620 = tested on: SW-620
NCI-H23 = tested on: NCI-H23
PC-3 = tested on: PC-3
MDA-MB-435 = tested on: MDA-MB-435
HL-60 = tested on: HL-60
BT-549 = tested on: BT-549
Hs-578T = tested on: Hs-578T
OVCAR-4 = tested on: OVCAR-4
OVCAR-5 = tested on: OVCAR-5
CCRF-CEM = tested on: CCRF-CEM
A498 = tested on: A498
XF498 = tested on: XF498
TK-10 = tested on: TK-10
HCT-15 = tested on: HCT-15
KM12 = tested on: KM12
IGROV-1 = tested on: IGROV-1
HOP-62 = tested on: HOP-62
OVCAR-8 = tested on: OVCAR-8

Structure (SMILES)	GI50 (ACHN)	GI50 (M14)	GI50 (SW-620)	GI50 (NCI-H23)	GI50 (PC-3)	GI50 (MDA-MB-435)	GI50 (HL-60)	GI50 (BT-549)	GI50 (Hs-578T)	GI50 (OVCAR-4)	GI50 (OVCAR-5)	GI50 (CCRF-CEM)	GI50 (A498)	GI50 (XF498)	GI50 (TK-10)	GI50 (HCT-15)	GI50 (KM12)	GI50 (IGROV-1)	GI50 (HOP-62)	GI50 (OVCAR-8)
COc1ccc(/C=C2\C(=O)NC(=O)c3ccccc32)cc1OC	32.2 µM (inactive)	57.5 µM (inactive)	16.6 µM (inactive)	49.8 µM (inactive)	45.2 µM (inactive)	30.1 µM (inactive)	2.68 µM (inactive)	> 100 µM (inactive)	53.5 µM (inactive)	34.6 µM (inactive)	60.8 µM (inactive)	1.09 µM (active)	> 66.5 µM (inactive)	6.71 µM (inactive)	> 100 µM (inactive)	20.5 µM	39.4 µM (inactive)	13.8 µM (inactive)	32.5 µM (inactive)	10.1 µM (inactive)
COc1c(O)c(O)cc2c1-c1ccc(OC)c(=O)cc1C(NC(C)=O)CC2 (stereo not given)	37.5 µM (inactive)	3.78 µM (inactive)	4.41 µM (inactive)	3.95 µM (inactive)	6.62 µM (inactive)	1.6 µM (inactive)	4.85 µM (inactive)	2.22 µM (inactive)	2.66 µM (inactive)	22.6 µM (inactive)	40 µM (inactive)	3.72 µM (inactive)	15.5 µM (inactive)	5.38 µM (inactive)	65.2 µM (inactive)	30.6 µM	3.43 µM (inactive)	5.26 µM (inactive)	7.6 µM (inactive)	7.55 µM (inactive)
